Each block holds one molecule with its values, some of them ahead of it.
Key:
[1] = Biodistribution in rats (iv injection); format: in vivo; conditions: rat, iv
Description: While under ether anesthesia, each rat was injected in the femoral vein with 0.2 mL saline solution containing [^123 I]I-TBZ (1-5uCi) either racemic mixture, peak-A or peak-B. The rats were sacrificed at various time points postinjection by cardiac excision. The tissues were weighed and the radioactivity was measured with a Canberra gamma counter (Model 5000). The percent dose per organ was calculated by a comparison of the tissue counts to suitably diluted aliquots of the injected material. Total activities of blood and muscle were calculated assuming that they were 7% and 40% of total body weight, respectively Results are presented in Tables 3, 4A and 4B.

[2] = Regional brain distribution in rats (dissection, iv injection); format: in vivo; conditions: rat, listed as I-TBZ peak B
Description: Regional brain distribution of [^123 I]I-TBZ (with either a racemic mixture, peak A or B) in rats was obtained after an iv injection. By dissecting, weighing and counting samples from different brain regions (cortex, striatum, hippocampus and cerebellum), % dose/gram of the samples was calculated by comparing the sample counts with the counts of the diluted initial dose. The ratio of uptake in each region was obtained by dividing % dose/gram of each region with that of the cerebellum. The effect of tetrahydrobenazine on the uptake of peak A or peak B was investigated by pretreating the rats with the TBZ 3 mg/rat at 3 min before iv injection of [^123 I]I-TBZ. At 20 min. post injection the rats were dissected and the regional brain dissection was carried out as above.

rat plasma [3] = experiment: Protein binding by TCA (10% rat plasma, 30 min, 37° C.); format: in vitro ADME; conditions: TCA precipitation
Description: One ml of 10% rat plasma was mixed with [^123 I]I-TBZ in a test tube and the mixture was incubated for 30 minutes at 37° C. To the mixture 0.4 mL of 10% trichloroacetic acid (TCA) was added. The test tube was centrifuged for 10 min. (4,000 rpm), and the top aqueous layer was removed to another test tube for counting The precipitate was washed with water (0.5 mL×2). The combined water and top aqueous layer was counted. The residual precipitate was also counted. The protein binding was obtained by dividing counts in precipitate with counts in aqueous layers.

rat plasma [4] = experiment: Protein binding by Filter (50% rat plasma, Amicon micropartition system); format: in vitro ADME; conditions: 30 min, 37° C.
Description: One mL of rat plasma (50%) was mixed with [^123 I]I-TBZ in a test tube. After 30 min incubation at 37° C., 50 uL ×3 of liquid was removed as initial dose standard (I.D.); the rest was passed through an Amicon micropartition system (Amicon division, W. R. Grace, Danvers, Mass.) by centrifuging for 20 minutes (2,000 rpm) at 0° C. Four samples (50 uL each) were removed from the filtered solution and counted. The protein binding (% bound) was calculated by using the unit counts in filtrate divided by unit counts in ID.

[5] = tested on: monoamine transporter of chromaffin granules and CNS synaptic vesicles; conditions: cited from earlier work
[6] = normal and lesioned brain sections; cited from earlier work

Blood uptake (blood assumed 7% of body weight) ([1]; 5 min): 4.74 ± 0.36 % Dose/organ
Br/Bl (% dose/gram ratio) ([1]; 5 min): 1.54 ± 0.16
Brain uptake ([1]; 5 min): 0.74 ± 0.07 % Dose/organ
Heart uptake ([1]; 5 min): 0.63 ± 0.03 % Dose/organ
Kidney uptake ([1]; 5 min): 2.18 ± 0.34 % Dose/organ
Liver uptake ([1]; 5 min): 22.61 ± 1.85 % Dose/organ
Lung uptake ([1]; 5 min): 2.02 ± 0.22 % Dose/organ
Muscle uptake (muscle assumed 40% of body weight) ([1]; 5 min): 21.12 ± 1.36 % Dose/organ
Skin uptake ([1]; 5 min): 7.64 ± 3.09 % Dose/organ
Spleen uptake ([1]; 5 min): 0.46 ± 0.03 % Dose/organ
Thyroid uptake ([1]; 5 min): 0.07 ± 0.01 % Dose/organ
Blood uptake (blood assumed 7% of body weight) ([1]; 20 min): 2.76 ± 0.42 % Dose/organ
Br/Bl (% dose/gram ratio) ([1]; 20 min): 1.06 ± 0.22
Brain uptake ([1]; 20 min): 0.27 ± 0.02 % Dose/organ
Heart uptake ([1]; 20 min): 0.35 ± 0.02 % Dose/organ
Kidney uptake ([1]; 20 min): 1.37 ± 0.11 % Dose/organ
Liver uptake ([1]; 20 min): 17.25 ± 1.25 % Dose/organ
Lung uptake ([1]; 20 min): 1.05 ± 0.04 % Dose/organ
Muscle uptake (muscle assumed 40% of body weight) ([1]; 20 min): 19.78 ± 1.90 % Dose/organ
Skin uptake ([1]; 20 min): 8.37 ± 1.15 % Dose/organ
Spleen uptake ([1]; 20 min): 0.28 ± 0.03 % Dose/organ
Thyroid uptake ([1]; 20 min): 0.05 ± 0.01 % Dose/organ
Blood uptake (blood assumed 7% of body weight) ([1]; 60 min): 1.89 ± 0.13 % Dose/organ
Br/Bl (% dose/gram ratio) ([1]; 60 min): 0.47 ± 0.05
Brain uptake ([1]; 60 min): 0.087 ± 0.01 % Dose/organ
Heart uptake ([1]; 60 min): 0.16 ± 0.01 % Dose/organ
Kidney uptake ([1]; 60 min): 0.70 ± 0.06 % Dose/organ
Liver uptake ([1]; 60 min): 8.36 ± 1.01 % Dose/organ
Lung uptake ([1]; 60 min): 0.46 ± 0.03 % Dose/organ
Muscle uptake (muscle assumed 40% of body weight) ([1]; 60 min): 11.80 ± 2.02 % Dose/organ
Skin uptake ([1]; 60 min): 5.45 ± 0.64 % Dose/organ
Spleen uptake ([1]; 60 min): 0.14 ± 0.03 % Dose/organ
Thyroid uptake ([1]; 60 min): 0.13 ± 0.03 % Dose/organ
Blood uptake (blood assumed 7% of body weight) ([1]; 120 min): 1.89 ± 0.34 % Dose/organ
Br/Bl (% dose/gram ratio) ([1]; 120 min): 0.25 ± 0.03
Brain uptake ([1]; 120 min): 0.042 ± 0.008 % Dose/organ
Heart uptake ([1]; 120 min): 0.09 ± 0.02 % Dose/organ
Kidney uptake ([1]; 120 min): 0.36 ± 0.09 % Dose/organ
Liver uptake ([1]; 120 min): 4.35 ± 0.50 % Dose/organ
Lung uptake ([1]; 120 min): 0.27 ± 0.08 % Dose/organ
Muscle uptake (muscle assumed 40% of body weight) ([1]; 120 min): 5.72 ± 1.20 % Dose/organ
Skin uptake ([1]; 120 min): 4.80 ± 0.46 % Dose/organ
Spleen uptake ([1]; 120 min): 0.06 ± 0.01 % Dose/organ
Thyroid uptake ([1]; 120 min): 0.47 ± 0.14 % Dose/organ
Regional brain uptake, Rem ([2]; 5 min): 0.465 ± 0.070 % Dose/g
Regional brain uptake, cerebellum ([2]; 5 min): 0.449 ± 0.067 % Dose/g
Regional brain uptake, cortex ([2]; 5 min): 0.514 ± 0.066 % Dose/g
Regional brain uptake, hippocampus ([2]; 5 min): 0.458 ± 0.074 % Dose/g
Regional brain uptake, striatum ([2]; 5 min): 0.482 ± 0.066 % Dose/g
Str./Cb (% dose/gram ratio) ([2]; 5 min): 1.07
Regional brain uptake, Rem ([2]; 20 min): 0.172 ± 0.011 % Dose/g
Regional brain uptake, cerebellum ([2]; 20 min): 0.162 ± 0.017 % Dose/g
Regional brain uptake, cortex ([2]; 20 min): 0.183 ± 0.012 % Dose/g
Regional brain uptake, hippocampus ([2]; 20 min): 0.189 ± 0.012 % Dose/g
Regional brain uptake, striatum ([2]; 20 min): 0.189 ± 0.001 % Dose/g
Str./Cb (% dose/gram ratio) ([2]; 20 min): 1.17
Regional brain uptake, Rem ([2]; 60 min): 0.057 ± 0.006 % Dose/g
Regional brain uptake, cerebellum ([2]; 60 min): 0.055 ± 0.005 % Dose/g
Regional brain uptake, cortex ([2]; 60 min): 0.060 ± 0.007 % Dose/g
Regional brain uptake, hippocampus ([2]; 60 min): 0.058 ± 0.009 % Dose/g
Regional brain uptake, striatum ([2]; 60 min): 0.062 ± 0.002 % Dose/g
Str./Cb (% dose/gram ratio) ([2]; 60 min): 1.13
Regional brain uptake, Rem ([2]; 120 min): 0.027 ± 0.004 % Dose/g
Regional brain uptake, cerebellum ([2]; 120 min): 0.027 ± 0.005 % Dose/g
Regional brain uptake, cortex ([2]; 120 min): 0.028 ± 0.005 % Dose/g
Regional brain uptake, hippocampus ([2]; 120 min): 0.027 ± 0.004 % Dose/g
Regional brain uptake, striatum ([2]; 120 min): 0.027 ± 0.003 % Dose/g
Str./Cb (% dose/gram ratio) ([2]; 120 min): 1.00
Protein binding, by TCA (rat plasma [3]): 40.8 ± 0.6 % bound
Protein binding, by Filter (rat plasma [4]): 83.7 ± 0.8 % bound
Structure (SMILES): COc1cc2c(cc1OC)C1CC(O)(C=C[123I])C(CC(C)C)CN1CC2 (single isomer, unassigned) [Peak B]

Structure (SMILES): COc1cc2c(cc1OC)C1CC(O)C(CC(C)C)CN1CC2 (stereo not shown) [[^3 H]dihydro-TBZ, 2-hydroxy-3-(2-methylpropyl)-9,10-dimethoxy-1,3,4,6,7,11b-hexahydro-2H -benzo[a]quinolizine]
binding affinity for the transporter (in words) [5]: does not affect the binding affinity
Kd ([5]; membranes of chromaffin granules and brain tissue samples, in vitro, read-out: binding affinity Kd): 2 to 9 nM
Regional distribution of binding sites in brain sections (in words) [6]: corresponded to the monoamine cell bodies and nerve endings
